The record followed here is patent US12559529B2, “NPY2 receptor agonists” (Boehringer Ingelheim International GmbH, priority 2019, dated 2026).

*1 amine or outer side, *2 acyl side, *3 side chain or, on linkers, in order; H or OH if unused. Where a SMILES comes first, the peptide text is derived from it. Side-chain parts run from the residue outwards. The star is where a group is joined. C18 diacid = O=C(O)CCCCCCCCCCCCCCCCC(=O)*; γGlu = O=C(O)[C@H](CCC(=O)[*:2])N[*:1]; Isovaleryl = CC(C)CC(=O)*; AEEA = NCCOCCOCC(=O)O

The test system of experiment [1] is normal NMRI mice. Kind of experiment: Effect on acute food intake in normal NMRI mice. The format is in vivo. The settings on record: male NMRI mice, 10 nmol/kg subcutaneously once. On the procedure:
Male NMRI mice were obtained from Charles River (Charles River, Research Models & Services Germany GmbH) or from Jan Vier (Jan Vier Labs, France) at 5 weeks of age. […] Room temperature was controlled to 21° C.±1° C., with 60%+20% humidity.
Animals were transferred 5-7 days before the start of the study to a real-time food intake monitoring system, HM-2 system (MBRose, Denmark), to allow acclimatization to experimental conditions. As the animals were uniquely identified with microchips, each individual animal was identified by its microchip upon entry and exit from the food channel. Randomization of the mice for each study group (n=7-8) was based on body weight measured the day before the start of the study. A vehicle-treated (50 mM phosphate buffer pH7 with 5% Mannitol) group was included in each experiment. Six hours before the start of the night phase animals were fasted. One hour before the dark phase animals were dosed once subcutaneously (10 nmol/kg) with test peptide. […] The food intake of the treated groups was normalized (in %) to the average food intake of the group receiving vehicle (Table 7). Statistical significance was evaluated using One-way analysis of variance with Turkey's multiple comparison test. P<0.05 was considered statistically significant.

Experiment [2] concerns the target T1, Human Neuropeptide Y2 Receptor (Homo sapiens, UniProt P49146).
T1 construct: purchased CHEMICON HTS066M
T1 sequence (P49146 1-381): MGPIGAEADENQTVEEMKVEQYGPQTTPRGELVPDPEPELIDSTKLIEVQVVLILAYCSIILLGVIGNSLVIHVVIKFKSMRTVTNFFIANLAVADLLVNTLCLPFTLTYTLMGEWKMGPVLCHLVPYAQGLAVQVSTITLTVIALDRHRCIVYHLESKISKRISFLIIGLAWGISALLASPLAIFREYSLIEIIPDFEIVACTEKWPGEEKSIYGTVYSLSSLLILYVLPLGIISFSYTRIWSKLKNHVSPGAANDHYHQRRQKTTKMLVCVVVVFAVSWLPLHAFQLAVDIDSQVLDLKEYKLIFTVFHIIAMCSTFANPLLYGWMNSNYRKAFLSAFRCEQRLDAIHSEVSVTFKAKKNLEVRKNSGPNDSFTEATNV
Kind of experiment: Radioligand binding competition assay (RLB). To be noted: Table 3; human 125I-PYY (1-36) 0.02 nM, Y2 receptor membranes; read-out: Ki. The essentials:
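Membranes from cells expressing human Y2 receptor (0.5 μg protein/well) were incubated with radioligand and serially diluted peptides in 50 mM HEPES, 5 mM MgCl2, 1 mM CaCl2, 0.2% ovalbumin, pH 7.4, for 2 h at room temperature with shaking. Bound radioactivity was collected by filtration and counted; IC50 from sigmoidal nonlinear regression.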

As for `CC(C)CC(=O)N[C@@H](C)C(=O)N1CCC[C@H]1C(=O)N[C@@H](CCC(=O)O)C(=O)N[C@@H](CCCCNC(=O)COCCOCCNC(=O)COCCOCCNC(=O)CC[C@H](NC(=O)CCCCCCCCCCCCCCCCC(=O)O)C(=O)O)C(=O)N1CCC[C@H]1C(=O)N[C@@H](CCC(=O)O)C(=O)N[C@@H](C)C(=O)N[C@@H](CC(=O)O)C(=O)N[C@@H](C)C(=O)N[C@@H](CO)C(=O)N[C@@H](CCC(=O)O)C(=O)N[C@@H](CCC(=O)O)C(=O)N[C@@H](CCC(=O)O)C(=O)N[C@@H](CC(C)C)C(=O)N[C@@H](CCC(N)=O)C(=O)N[C@@H](CCCNC(=N)N)C(=O)N[C@@H](Cc1ccc(O)cc1)C(=O)N[C@@H](Cc1ccc(O)cc1)C(=O)N[C@H](C(=O)N[C@@H](CO)C(=O)N[C@@H](CC(C)C)C(=O)N[C@@H](CCCNC(=N)N)C(=O)N[C@@H](Cc1c[nH]cn1)C(=O)N[C@@H](Cc1ccc(O)cc1)C(=O)N[C@@H](Cc1ccc(O)cc1)C(=O)N[C@@H](CC(N)=O)C(=O)N[C@@H](Cc1c[nH]c2ccccc12)C(=O)N[C@@H](CC(C)C)C(=O)N[C@H](C(=O)N[C@@H](CCCNC(=N)N)C(=O)N[C@@H](CCC(N)=O)C(=O)N[C@@H](CCCNC(=N)N)C(=O)N[C@@H](Cc1ccc(O)cc1)C(N)=O)[C@@H](C)O)C(C)C` [Compound 30, N{alpha-4}-(3-methylbutanoyl)-N{epsilon-7}-[2-(2-{2-[2-(2-{2-[(4S)-4-carboxy-4-(17-carboxyheptadecanamido)butanamido]ethoxy}ethoxy)acetamido]ethoxy}ethoxy)acetamido]-[4A,7K,9E,10A,14E,18Q,22V,28Y,30W,31L]hPYY (4-36)], in experiment [1], the “Acute Food Intake 24 h [% vehicle]” value amounted to 45 % vehicle.
For `CC(C)CC(=O)N[C@@H](C)C(=O)N1CCC[C@H]1C(=O)N[C@@H](CCC(=O)O)C(=O)N[C@@H](CCCCNC(=O)COCCOCCNC(=O)COCCOCCNC(=O)CC[C@H](NC(=O)CCCCCCCCCCCCCCCCC(=O)O)C(=O)O)C(=O)N1CCC[C@H]1C(=O)N[C@@H](CCC(=O)O)C(=O)N[C@@H](CCC(=O)O)C(=O)N[C@@H](CC(=O)O)C(=O)N[C@@H](C)C(=O)N[C@@H](CO)C(=O)N1CCC[C@H]1C(=O)N[C@@H](CCC(=O)O)C(=O)N[C@@H](CCC(=O)O)C(=O)N[C@@H](CC(C)C)C(=O)N[C@@H](CCC(N)=O)C(=O)N[C@@H](CCC(N)=O)C(=O)N[C@@H](Cc1ccc(O)cc1)C(=O)N[C@@H](Cc1ccc(O)cc1)C(=O)N[C@H](C(=O)N[C@@H](CO)C(=O)N[C@@H](CC(C)C)C(=O)N[C@@H](CCCNC(=N)N)C(=O)N[C@@H](Cc1c[nH]cn1)C(=O)N[C@@H](Cc1ccc(O)cc1)C(=O)N[C@@H](Cc1ccc(O)cc1)C(=O)N[C@@H](CC(N)=O)C(=O)N[C@@H](Cc1c[nH]c2ccccc12)C(=O)N[C@@H](CC(C)C)C(=O)N[C@H](C(=O)N[C@@H](CCCNC(=N)N)C(=O)N[C@@H](CCC(N)=O)C(=O)N[C@@H](CCCNC(=N)N)C(=O)N[C@@H](Cc1ccc(O)cc1)C(N)=O)[C@@H](C)O)C(C)C` [Compound 58, N{alpha-4}-(3-methylbutanoyl)-N{epsilon-7}-[2-(2-{2-[2-(2-{2-[(4S)-4-carboxy-4-(17-carboxyheptadecanamido)butanamido]ethoxy}ethoxy)acetamido]ethoxy}ethoxy)acetamido]-[4A,7K,9E,18Q,19Q,22V,28Y,30W,31L]hPYY (4-36)], in experiment [1], the “Acute Food Intake 24 h [% vehicle]” value came to 44 % vehicle.
On the same count and under the same terms, the value for `CC(C)CC(=O)N[C@@H](C)C(=O)N1CCC[C@H]1C(=O)N[C@@H](CCC(=O)O)C(=O)N[C@@H](CCCCNC(=O)COCCOCCNC(=O)COCCOCCNC(=O)CC[C@H](NC(=O)CCCCCCCCCCCCCCCCC(=O)O)C(=O)O)C(=O)N1CCC[C@H]1C(=O)N[C@@H](CCC(=O)O)C(=O)N[C@@H](CCC(=O)O)C(=O)N[C@@H](CCC(=O)O)C(=O)N[C@@H](C)C(=O)N[C@@H](CO)C(=O)N1CCC[C@H]1C(=O)N[C@@H](CCC(=O)O)C(=O)N[C@@H](CCC(=O)O)C(=O)N[C@@H](CC(C)C)C(=O)N[C@@H](CCC(N)=O)C(=O)N[C@@H](CCCNC(=N)N)C(=O)N[C@@H](Cc1ccc(O)cc1)C(=O)N[C@@H](CCC(=O)O)C(=O)N[C@H](C(=O)N[C@@H](CO)C(=O)N[C@@H](CC(C)C)C(=O)N[C@@H](CCCNC(=N)N)C(=O)N[C@@H](Cc1c[nH]cn1)C(=O)N[C@@H](Cc1ccc(O)cc1)C(=O)N[C@@H](Cc1ccc(O)cc1)C(=O)N[C@@H](CC(N)=O)C(=O)N[C@@H](Cc1c[nH]c2ccccc12)C(=O)N[C@@H](CC(C)C)C(=O)N[C@H](C(=O)N[C@@H](CCCNC(=N)N)C(=O)N[C@@H](CCC(N)=O)C(=O)N[C@@H](CCCNC(=N)N)C(=O)N[C@@H](Cc1ccc(O)cc1)C(N)=O)[C@@H](C)O)C(C)C` [Compound 154, N{alpha-4}-(3-methylbutanoyl)-N{epsilon-7}-[2-(2-{2-[2-(2-{2-[(4S)-4-carboxy-4-(17-carboxyheptadecanamido)butanamido]ethoxy}ethoxy)acetamido]ethoxy}ethoxy)acetamido]-[4A,7K,9E,11E,18Q,21E,22V,28Y,30W,31L]hPYY (4-36)] (Isovaleryl-APEK([AEEA-AEEA-γGlu-C18 diacid])PEEEASPEELQRYEVSLRHYYNWLTRQRY-NH2) was 73 % vehicle.
As for `CC(C)CC(=O)N[C@@H](C)C(=O)N1CCC[C@H]1C(=O)N[C@@H](CCC(=O)O)C(=O)N[C@@H](CCCCNC(=O)COCCOCCNC(=O)COCCOCCNC(=O)CC[C@H](NC(=O)CCCCCCCCCCCCCCCCC(=O)O)C(=O)O)C(=O)N1CCC[C@H]1C(=O)N[C@@H](CCC(=O)O)C(=O)N[C@@H](C)C(=O)N[C@@H](CC(=O)O)C(=O)N[C@@H](C)C(=O)N[C@@H](CO)C(=O)N[C@@H](C)C(=O)N[C@@H](CCC(=O)O)C(=O)N[C@@H](CCC(=O)O)C(=O)N[C@@H](CC(C)C)C(=O)N[C@@H](CCC(N)=O)C(=O)N[C@@H](CCCNC(=N)N)C(=O)N[C@@H](Cc1ccc(O)cc1)C(=O)N[C@@H](Cc1ccc(O)cc1)C(=O)N[C@H](C(=O)N[C@@H](CO)C(=O)N[C@@H](CC(C)C)C(=O)N[C@@H](CCCNC(=N)N)C(=O)N[C@@H](Cc1c[nH]cn1)C(=O)N[C@@H](Cc1ccc(O)cc1)C(=O)N[C@@H](Cc1ccc(O)cc1)C(=O)N[C@@H](CC(N)=O)C(=O)N[C@@H](Cc1c[nH]c2ccccc12)C(=O)N[C@@H](CC(C)C)C(=O)N[C@H](C(=O)N[C@@H](CCCNC(=N)N)C(=O)N[C@@H](CCC(N)=O)C(=O)N[C@@H](CCCNC(=N)N)C(=O)N[C@@H](Cc1ccc(O)cc1)C(N)=O)[C@@H](C)O)C(C)C` [Compound 242, N{alpha-4}-(3-methylbutanoyl)-N{epsilon-7}-[2-(2-{2-[2-(2-{2-[(4S)-4-carboxy-4-(17-carboxyheptadecanamido)butanamido]ethoxy}ethoxy)acetamido]ethoxy}ethoxy)acetamido]-[4A,7K,9E,10A,14A,18Q,22V,28Y,30W,31L]hPYY (4-36)], the Ki in experiment [2] was 0.81 nM.
As to `CC(C)CC(=O)N[C@@H](C)C(=O)N1CCC[C@H]1C(=O)N[C@@H](CCC(=O)O)C(=O)N[C@@H](CCCCNC(=O)COCCOCCNC(=O)COCCOCCNC(=O)CC[C@H](NC(=O)CCCCCCCCCCCCCCCCC(=O)O)C(=O)O)C(=O)N1CCC[C@H]1C(=O)N[C@@H](CCC(=O)O)C(=O)N[C@@H](CCC(=O)O)C(=O)N[C@@H](CCC(=O)O)C(=O)N[C@@H](C)C(=O)N[C@@H](CO)C(=O)N1CCC[C@H]1C(=O)N[C@@H](CCC(=O)O)C(=O)N[C@@H](CCC(=O)O)C(=O)N[C@@H](CC(C)C)C(=O)N[C@@H](CCC(N)=O)C(=O)N[C@@H](CCC(N)=O)C(=O)N[C@@H](Cc1ccc(O)cc1)C(=O)N[C@@H](Cc1ccc(O)cc1)C(=O)N[C@H](C(=O)N[C@@H](CO)C(=O)N[C@@H](CC(C)C)C(=O)N[C@@H](CCCNC(=N)N)C(=O)N[C@@H](Cc1c[nH]cn1)C(=O)N[C@@H](Cc1ccc(O)cc1)C(=O)N[C@@H](Cc1ccc(O)cc1)C(=O)N[C@@H](CC(N)=O)C(=O)N[C@@H](Cc1c[nH]c2ccccc12)C(=O)N[C@@H](CC(C)C)C(=O)N[C@H](C(=O)N[C@@H](CCCNC(=N)N)C(=O)N[C@@H](CCC(N)=O)C(=O)N[C@@H](CCCNC(=N)N)C(=O)N[C@@H](Cc1ccc(O)cc1)C(N)=O)[C@@H](C)O)C(C)C` [Compound 243, N{alpha-4}-(3-methylbutanoyl)-N{epsilon-7}-[2-(2-{2-[2-(2-{2-[(4S)-4-carboxy-4-(17-carboxyheptadecanamido)butanamido]ethoxy}ethoxy)acetamido]ethoxy}ethoxy)acetamido]-[4A,7K,9E,11E,18Q,19Q,22V,28Y,30W,31L]hPYY (4-36)] (Isovaleryl-APEK([AEEA-AEEA-γGlu-C18 diacid])PEEEASPEELQQYYVSLRHYYNWLTRQRY-NH2), the Ki in experiment [2] came to 2.07 nM.

Usually Ki stands for the dissociation constant of the complex between target and ligand, obtained from inhibition or displacement.
